The target of one experiment is T1, vanilloid receptor (Rattus norvegicus, UniProt O35433).
T1 construct: DRG nerve cells from the primary culture of 2 days were equilibrated; endogenous in cells; host or cells: primary cultured dorsal root ganglion neurons of neonatal SD rats
Put plainly: 45Ca influx test (calcium uptake) in primary cultured DRG neurons, antagonism of capsaicin. The note with it: neonatal SD rat DRG nerve cells; capsaicin 0.5 μM; 45Ca 10 μCi/ml; 10 mins room temperature; read-out: Antagonist Calcium Uptake Test (IC50). It counts as cell-based. How it is done:
1) Separation of Spinal Dorsal Root Ganglia (DRG) in Newborn Rats and Primary Culture Thereof
Neonatal (2-3 day old or younger than 2-3 day old) SD rats were put in ice for 5 minutes to anesthetize and disinfected with 70% ethanol. […] The DRG were incubated sequentially at 37° C. for 30 min in 200 U/ml collagenase and 2.5 mg/ml trypsin, separately. The ganglia were washed twice with DME/F12 medium supplemented with 10% horse serum, triturated through a fire-polished Pasteur pipette, filtered through Nitex 80 membrane to obtain single cell suspension and the suspension was washed once more. This was subjected to centrifugation, then resuspended in cell culture medium at certain level of cell density. As the cell culture medium, DME/F12 medium supplemented with 10% horse serum was diluted with identical medium conditioned by C6 glioma cells 2 days on a confluent monolayer (1:1), and NGF (Nerve Growth Factor) was added to adjust 200 ng/ml as final concentration. After the cells were grown 2 days in medium where cytosine arabinoside (Ara-C, 100 μM) was added to kill dividing nonneuronal cells, medium was changed to one without Ara-C. The resuspended cells were plated at a density of 1500-2000 neurons/well onto Terasaki plates previously coated with 10 μg/ml poly-D-ornithine.
2) ^45Ca Influx Experiments
DRG nerve cells from the primary culture of 2 days were equilibrated by washing 4 times with HEPES (10 mM, pH 7.4)-buffered Ca^2+, Mg^2+-free HBSS (H—HBSS). The solution in each well was removed from the individual well. Medium containing the test compound plus capsaicin (final concentration 0.5 μM) and ^45Ca (final concentration 10 μCi/ml) in H—HBSS was added to each well and incubated at room temperature for 10 mins. Terasaki plates were washed five times with H—HBSS and dried at room temperature. To each well, 0.3% SDS (10 μl) was added to elute ^45Ca. After the addition of scintillation cocktail of into each well, the amount of ^45Ca influx into neuron was measured by counting radioactivity.

A further experiment relates to Male ICR mice. Put plainly: Analgesic activity test: mouse writhing test by inducing with phenyl-p-quinone. It counts as in vivo. The following applies: ip, 0.5 h, number of writhes vs control, read-out: Analgesic effect (% Inhibition); for inhibition in vivo at 1 mg/kg: Dose 1 mg/kg intraperitoneally 30 min before phenyl-p-quinone. How it is done:
3. Analgesic Activity Test: Mouse Writhing Test by Inducing with phenyl-p-quinone
Male ICR mice (mean body weight 25 g) were maintained in a controlled lighting environment (12 h on/12 h off) for experiment. Animals received an intraperitoneal injection of 0.3 ml of the chemical irritant phenyl-p-quinone (dissolved in saline containing 5% ethanol to be a dose of 4.5 mg/kg) and 6 mins later, the number of abdominal constrictions was counted in the subsequent 6 mins period. Animals (10 animals/group) received 0.2 ml of test compounds solution in vehicle of ethanol/Tween 80/saline (10/10/80) intraperitoneally 30 min before the injection of phenyl-p-quinone. A reduction in the number of writhes responding to the test drug compound relative to the number responding in saline control group was considered to be indicative of an analgesic effect. Analgesic effect was calculated by % inhibition equation (% inhibition=(C−T)/C×100), wherein C and T represent the number of writhes in control and compound-treated group, respectively (Table 3).

IC50 and inhibition in vivo data for 10 compounds are collected here from patent US7763657B2, “Compounds, isomer thereof, or pharmaceutically acceptable salts thereof as vanilloid receptor antagonist; and pharmaceutical compositions containing the same” (Amorepacific Corporation, priority 2005, dated 2010).

Structures are written as SMILES.

T1 sequence (O35433 whole entry): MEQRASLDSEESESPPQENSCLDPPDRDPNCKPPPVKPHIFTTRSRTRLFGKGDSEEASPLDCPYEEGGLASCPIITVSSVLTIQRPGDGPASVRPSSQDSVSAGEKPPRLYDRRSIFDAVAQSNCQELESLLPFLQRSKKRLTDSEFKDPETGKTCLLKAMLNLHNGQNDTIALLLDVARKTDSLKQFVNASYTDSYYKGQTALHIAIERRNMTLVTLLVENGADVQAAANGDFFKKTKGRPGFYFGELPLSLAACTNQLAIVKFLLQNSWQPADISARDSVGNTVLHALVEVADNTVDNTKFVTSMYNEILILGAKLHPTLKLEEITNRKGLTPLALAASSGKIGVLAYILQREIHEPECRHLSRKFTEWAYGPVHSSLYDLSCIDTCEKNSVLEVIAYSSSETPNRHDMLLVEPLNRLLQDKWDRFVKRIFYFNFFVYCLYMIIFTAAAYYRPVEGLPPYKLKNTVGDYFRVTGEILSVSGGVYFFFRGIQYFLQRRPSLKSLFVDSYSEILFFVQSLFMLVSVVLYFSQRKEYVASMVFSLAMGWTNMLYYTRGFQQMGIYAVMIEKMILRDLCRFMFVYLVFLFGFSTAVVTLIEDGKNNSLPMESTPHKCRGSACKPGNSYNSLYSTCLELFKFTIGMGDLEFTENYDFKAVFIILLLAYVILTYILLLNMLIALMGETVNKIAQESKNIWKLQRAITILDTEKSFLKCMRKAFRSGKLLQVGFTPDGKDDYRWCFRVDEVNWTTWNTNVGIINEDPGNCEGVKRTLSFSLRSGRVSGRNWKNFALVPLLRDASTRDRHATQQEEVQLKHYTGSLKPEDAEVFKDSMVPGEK

The IC50 is the concentration that gives 50% inhibition. As for `C=Cc1cc(CNC(=O)NCc2ccc(C(C)(C)C)cc2)cc(F)c1NS(C)(=O)=O` [Example 2, N-{4-[3-(4-t-butylbenzyl)ureidomethyl]-2-fluoro-6-vinylphenyl}methanesulfonamide], the half-inhibitory concentration (IC50) on vanilloid receptor is 98 nM. The inhibition in vivo at 0.3 mg/kg in the experiment with Male ICR mice (Dose 0.3 mg/kg intraperitoneally 30 min before phenyl-p-quinone) was 57%.
With `C=Cc1cc([C@@H](C)NC(=O)NCc2ccc(C(C)(C)C)cc2)ccc1NS(C)(=O)=O` [Example 6, N-(4-{1-(R)-[3-(4-t-butylbenzyl)ureido]ethyl}-2-vinylphenyl)methanesulfonamide], the IC50 on vanilloid receptor was found to be 82 nM. Also, the inhibition in vivo at 1 mg/kg with Male ICR mice stood at 56%.
On the same counts, the results for `C=Cc1cc([C@@H](C)NC(=O)/C=C/c2ccc(C(C)(C)C)cc2)ccc1NS(C)(=O)=O` [Example 14, 3-(4-t-butylphenyl)-N-[1-(R)-(4-methanesulfonylamino-3-vinylphenyl)ethyl]acrylamide] are 50 nM and 58%.
As for `C=Cc1cc(CNC(=O)/C=C/c2ccc(C(C)(C)C)cc2)cc(F)c1NS(C)(=O)=O` [Example 15, 3-(4-t-butylphenyl)-N-(3-fluoro-4-methanesulfonylamino-5-vinylbenzyl)acrylamide], on vanilloid receptor, the IC50 worked out at 34 nM. Besides, in the experiment with Male ICR mice, the inhibition in vivo at 1 mg/kg stood at 60%.
Take `C#Cc1cc(CNC(=O)/C=C/c2ccc(C(C)(C)C)cc2)cc(F)c1NS(C)(=O)=O` [Example 16, 3-(4-t-butylphenyl)-N-(3-fluoro-5-ethynyl-4-methanesulfonylamino-benzyl)acrylamide]: on vanilloid receptor, the IC50 came to 47 nM. The inhibition in vivo at 1 mg/kg in the experiment with Male ICR mice amounted to 68%.
With `C=Cc1cc(CNC(=O)/C=C/c2ccc(C(C)(C)C)cc2)ccc1NS(C)(=O)=O` [Example 17, 3-(4-t-butylphenyl)-N-(4-methanesulfonylamino-3-vinylbenzyl)acryl amide], the IC50 on vanilloid receptor amounted to 58 nM. Further, the inhibition in vivo at 1 mg/kg in the experiment with Male ICR mice was 63%.
Regarding `C=Cc1cc(CNC(=O)/C=C/c2ccc(C(C)(C)C)cc2N2CCN(C)CC2)cc(F)c1NS(C)(=O)=O` [Example 25, 3-[4-tert-Butyl-2-(4-methylpiperazin-1-yl)phenyl]-N-(3-fluoro-4-methanesulfonylamino-5-vinylbenzyl)acrylamide], the inhibition in vivo at 1 mg/kg in the experiment on Male ICR mice is 64%.
Regarding `C=Cc1cc(CNC(=O)CCc2ccc(C(C)(C)C)cc2OC2CCOCC2)cc(F)c1NS(C)(=O)=O` [Example 41, 3-[4-tert-Butyl-2-(tetrahydropyran-4-yloxy)phenyl]-N-(3-fluoro-4-methanesulfonylamino-5-vinylbenzyl)propionamide], at vanilloid receptor, the IC50 turned out to be 43 nM. For the same compound, the inhibition in vivo at 1 mg/kg in the experiment on Male ICR mice was 44%.
`C=Cc1cc(CNC(=O)CCc2ccc(C(C)(C)C)cc2)ccc1NS(C)(=O)=O` [Example 45, 3-[4-(tert-butyl)phenyl]-N-[4-(methanesulfonylamino)-3-vinylbenzyl]propionamide]: the IC50 on vanilloid receptor turned out to be 63 nM. In addition, the inhibition in vivo at 1 mg/kg with Male ICR mice was found to be 82%.
For `C=Cc1cc(CNC(=O)CCc2ccc(C(C)(C)C)cc2)cc(F)c1NS(C)(=O)=O` [Example 46, 3-[4-(tert-butyl)phenyl]-N-[3-fluoro-4-(methanesulfonylamino)-5-vinylbenzyl]propionamide] the same measures were 25 nM and 43%.
